Key:
[1] = tested on: rat embryonic cortical neuron cultures; assay: Neurite outgrowth in primary rat embryonic cortical neuron cultures, single test articles (Example 1); assay type: cell-based; settings: 3 days treatment, compared to 0.1% sterile water vehicle control
From the text: Primary rat cortical neuron experimental methods: Female Wistar rats of 17 days gestation were killed by cervical dislocation and the fetuses (typically 6 to 8 in number) were removed from the uterus. Fetal brains were placed in ice-cold medium of Leibovitz (L15, Gibco, France). Cortex was dissected and meninges were carefully removed. The cortical neurons were dissociated by trypsinization (trypsin-EDTA, Gibco) in the presence of DNAse I (Roche, France). The reaction was stopped by addition of Dulbecco's Modified Eagle Medium (DMEM; Gibco) with 10% of fetal bovine serum (FBS; Gibco). The suspension was triturated with a 10-ml pipette and a 21-gauge needle syringe and centrifuged. The pellet of dissociated cells was resuspended in a medium consisting of Neurobasal (Gibco) supplemented with 2% B27 supplement (Gibco), 0.5 mM L-Glutamine (Gibco), and an antibiotic-antimycotic mixture. Viable cells were counted in a Neubauer cytometer and cells were seeded in 96-well plates (Costar) precoated with poly-L-lysine at 10,000 cells/well.
Stock solutions were prepared in sterile water at 10 mM, and stored at −20° C. until use. Further dilution will be performed in culture in the medium on the day of the treatment. 0.1% Sterile water will be present in all tested conditions. The following conditions were tested: 1) Racemic MDMA (10000, 1000, 100, 10, 1, 0.1, 0.01, 0.001 nM), 2) S(+)-MDMA (10000, 1000, 100, 10, 1, 0.1, 0.01, 0.001 nM), 3) R(−)-MDMA (10000, 1000, 100, 10, 1, 0.1, 0.01, 0.001 nM), 4) Racemic MDA (10000, 1000, 100, 10, 1, 0.1, 0.01, 0.001 nM), 5) S(+)-MDA (10000, 1000, 100, 10, 1, 0.1, 0.01, 0.001 nM), and 6) R(−)-MDA (10000, 1000, 100, 10, 1, 0.1, 0.01, 0.001 nM).
The experimental protocol was performed in 2 independent cultures (i.e., from 2 different pregnant rats). For each culture, each condition was tested in sextuplet (6 wells per condition per culture for a total of 12 wells per condition). […] After three days of plating and compound treatment (Day3), cultures were fixed with paraformaldehyde in phosphate buffered saline at 4° C. (PBS, 4%, Sigma). Then, all subsequent steps were performed at room temperature.
Cells were successively permeabilized for 30 minutes using 0.1% triton, saturated with PBS containing 3% bovine serum albumin (BSA) and incubated for 1 hour with anti-beta III tubulin antibody (T5168, Sigma). Cells were first washed 3 times and then were incubated for 1 hour with goat anti-mouse secondary antibody coupled with Alexa Fluor 488 (AF488, Invitrogen A11001). Finally, nuclei were stained with 4′-6-diamidino-2-phenylindole (DAPI). After rinsing the cells with PBS, the plate was imaged and neurite networks were examined and analyzed using a High-Content Screening platform (CellInsight CX5, Thermo Scientific) with integrated Photometrics high-resolution fluorescent camera, Olympus objective (10×) and HCS Studio Cell Analysis Software.
Approximately 2,000 neurons per well were analyzed using a validated cortex neuron outgrowth algorithm that utilizes parameters optimized for analysis of embryonic rat cortical neuron cultures. The HCS Studio Cell Analysis Software output will include values for neurite number total count, neurite total length (μm) and total number of branch points for each of the 6 wells per culture. The evaluation of neurite outgrowth was performed using the average number of neurites per neuron, the average total neurite length per neuron (μm) and the average number of branch points per neuron across 12 wells. Data also were transformed to percent (%) of the average vehicle control value. Results were expressed as mean (±s.e.m.) of the transformed (% of vehicle control) data. Statistical analyses were performed on transformed percent of the average vehicle control data for each measure for each test article using one-way analysis of variance (Anova, StatView or GraphPad Prism). Where applicable, Dunnett's test was used for multiple pairwise comparisons to the negative control (vehicle) condition. […]

[2] = tested on: rat embryonic cortical neuron cultures; assay: Neurite outgrowth in primary rat embryonic cortical neuron cultures, racemic and non-racemic R(−)/S(+)-MDMA mixtures (Example 2); assay type: cell-based; settings: concentrations of R(−)- and S(+)-MDMA as in the label (alone: 10 uM), 3 days treatment, compared to vehicle control, Anova/Dunnett p<0.05
From the text: Primary rat cortical neuron experimental methods: Female Wistar rats of 17 days gestation are killed by cervical dislocation and the fetuses (typically 6 to 8 in number) are removed from the uterus. Their brains are placed in ice-cold medium of Leibovitz (L15, Gibco, France). Cortex is dissected and meninges are carefully removed. The cortical neurons are dissociated by trypsinization (trypsin-EDTA, Gibco) in presence of DNAse I (Roche, France). The reaction is stopped by addition of Dulbecco's Modified Eagle Medium (DMEM; Gibco) with 10% of fetal bovine serum (FBS; Gibco). The suspension is triturated with a 10-ml pipette and using a needle syringe 21G and centrifuged. The pellet of dissociated cells is resuspended in a medium consisting of Neurobasal (Gibco) supplemented with 2% B27 supplement (Gibco), 0.5 mM L-Glutamine (Gibco), an antibiotic-antimycotic mixture. Viable cells are counted in a Neubauer cytometer and cells are seeded in 96-well plate (Costar) precoated with poly-L-lysine at 10 000cells/well.
The protocol is performed in either 1 or 2 independent cultures (i.e., from 1 or 2 different pregnant rats). For each culture, each condition is performed in sextuplet (6 wells per condition per culture from 1 rat, or a total of 12 wells per condition when 2 rats/cultures are used).
Cells are treated with the test compounds R(−)-MDMA and S(+)-MDMA as described in the following Tables below.
After three days of plating and test compound treatment (Day3), cultures are fixed with paraformaldehyde in phosphate buffered saline at 4° C. (PBS, 4%, Sigma). Then all steps will be performed at room temperature. Cells are successively permeabilized 30 min using 0.1% triton, saturated with PBS containing 3% bovine serum albumin (BSA) and incubated 1 h with anti-beta III tubulin antibody (T5168, Sigma). Cells are first washed 3 times and are then incubated 1 h with goat anti-mouse secondary antibody coupled with Alexa Fluor 488 (AF488, Invitrogen A11001). Finally, nuclei are stained with 4′-6-diamidino-2-phenylindole (DAPI). After rinsing the cells with PBS, the plate is filmed and neurite networks are examined and analyzed using a High-Content Screening platform (CellInsight CX5, Thermo Scientific) with integrated Photometrics high-resolution fluorescent camera, Olympus objective (10×) and HCS Studio Cell Analysis Software.
Approximately 2000 neurons per well were analyzed using a validated Cortex Neuron Outgrowth algorithm established by Neurofit that utilizes parameters optimized for analysis of embryonic rat cortical neuron cultures. The HCS Studio Cell Analysis Software output will include values for neurite total count number, neurite total length (μm) and total number of branch points for each of the 6 wells per culture. The evaluation of neurite outgrowth was performed using the average number of neurites per neuron, the average of total neurite length per neuron (μm) and the average number of branchpoint per neuron across 6 wells of each culture (6 wells total (1 rat used) or 12 wells total (2 rats used). Data were transformed to % of the average vehicle control value.

[3] = at any tested concentration (0.001-10000 nM)

**Q.** `CN[C@H](C)Cc1ccc2c(c1)OCO2` [R(−)-MDMA, (R)-3,4-methylenedioxymethamphetamine] was tested. Which neurite number ([1]; at 0.0001 μM) did it give?
**A.** The neurite number was “significantly increased”.

**Q.** And the neurite number ([1]; at 10 μM, Anova/Dunnett p<0.05)?
**A.** Its neurite number is “significantly increased”.

**Q.** What about the “neurite total length (μm)” value ([1]; at 10 μM, Anova/Dunnett p<0.05) of the same compound?
**A.** The value was “significantly increased”.

**Q.** And the “total number of branch points” value ([1]; at 10 μM, Anova/Dunnett p<0.05)?
**A.** The value was “significantly increased”.

**Q.** What about the “average number of branchpoints per neuron” value [2] of the same compound?
**A.** The value was “did not have significant effects”.

**Q.** And the “average number of neurites per neuron” value [2]?
**A.** The value was “did not have significant effects”.

**Q.** What about the “average total neurite length per neuron” value [2] of the same compound?
**A.** The value was “significantly induced”.

**Q.** For `C[C@@H](N)Cc1ccc2c(c1)OCO2` [R(−)-MDA], which neurite number [1, 3] is on record?
**A.** Its neurite number is “did not significantly alter”.

**Q.** And the “neurite total length (μm)” value [1, 3]?
**A.** Its value is “did not significantly alter”.

**Q.** What about the “total number of branch points” value [1, 3] of the same compound?
**A.** The value was “did not significantly alter”.

**Q.** For `CN[C@@H](C)Cc1ccc2c(c1)OCO2` [S(+)-MDMA], which neurite number [1, 3] is on record?
**A.** Its neurite number is “did not significantly alter”.

**Q.** And the “neurite total length (μm)” value [1, 3]?
**A.** The value was “did not significantly alter”.

**Q.** And the “total number of branch points” value [1, 3]?
**A.** Its value is “did not significantly alter”.

**Q.** What about the “average number of branchpoints per neuron” value [2] of the same compound?
**A.** Its value is “did not significantly induce”.

**Q.** And the “average number of neurites per neuron” value [2]?
**A.** The value was “did not significantly induce”.

**Q.** What about the “average total neurite length per neuron” value [2] of the same compound?
**A.** The value was “did not significantly induce”.

**Q.** Which results are given for `CNC(C)Cc1ccc2c(c1)OCO2` (racemic) [Racemic R,S(+/−)-MDMA, 3,4-Methylenedioxymethamphetamine]?
**A.** neurite number ([1]; at 10 μM, Anova/Dunnett p<0.05): significantly increased; neurite total length (μm) ([1]; at 10 μM, Anova/Dunnett p<0.05): significantly increased; total number of branch points ([1]; at 10 μM, Anova/Dunnett p<0.05): significantly increased

**Q.** How did the neurite number [1, 3] turn out when `C[C@H](N)Cc1ccc2c(c1)OCO2` [S(+)-MDA] was run?
**A.** The neurite number was “did not significantly alter”.

**Q.** And the “neurite total length (μm)” value [1, 3]?
**A.** Its value is “did not significantly alter”.

**Q.** What about the “total number of branch points” value [1, 3] of the same compound?
**A.** Its value is “did not significantly alter”.

**Q.** Which results are given for `CC(N)Cc1ccc2c(c1)OCO2` (racemic) [racemic R,S(+/−)-MDA, 3,4-methylenedioxyamphetamine, reference compound]?
**A.** neurite number [1, 3]: did not significantly alter; neurite total length (μm) [1, 3]: did not significantly alter; total number of branch points [1, 3]: did not significantly alter
